Where two headings read alike, the source gives them in different places.
How the values were obtained:
anesthetized rats = test: Salivation after iontophoretic transdermal co-delivery of agonist and antagonist; format: in vivo, Long Evans Hooded rats; conditions: anesthetized rat, one patch with 1 mg Compound 3 plus 0.01 mg antagonist
Procedure: Experimental compounds and drug substances were delivered transdermally in rats using iontophoresis as follows. The fur was shaved from the backs of Long Evans Hooded rats weighing 225 to 325 grams, using electric clippers. Experimental compounds and drug substances were formulated at suitable concentrations an aqueous mixture of the following composition:
The polyvinyl alcohol/water was heated to 95 deg C. until it became clear, then the other constituents were added and mixed well. The mixture was introduced into suitable molds containing a disc-shaped cavity 2.2 cm diameter and 2.2 mm deep. Molds may be fabricated using two glass sheets separated by a silicone rubber sheet with suitable sized cavities and filling ports cut-outs. The molds were subject to 3 freeze-thaw cycles at −80 deg C. and 20 deg C. until a firm cryogel was obtained. The gels were separated from the molds and trimmed into a circular shape. The gel was placed in a silicone rubber casing with one face in contact with a circular silver foil anodic electrode (22 mm dia/250 microns thick), and the assembly was placed on the shaved skin of the rat such that the other face was in contact with the skin on one side of the back of the rat. The rubber casing formed a seal over and around the gel/electrode assembly. […] This was placed on the other side of the shaved back of the rat, the edges of the gel discs being about 20 mm apart at their nearest point. A DC voltage was applied across the two patches from a constant-current DC power supply and the voltage adjusted to obtain the desired current, such that the skin of the animal completed the electrical circuit.
The devices were placed on shaved backs of anesthetized rats and salivation was measured.
The animals were placed slightly head-down on an inclined, heated ramp. Rectal temperature was monitored using a thermocouple and the temperature of the heating pad was adjusted manually to maintain normal body temperature. Saliva was collected from the mouth by absorption onto pre-weighed slips of filter paper. The filter paper was changed periodically and the amount of saliva was measured by weighing the filter paper slips

[1] = tested on: salivary gland inositol phosphate; test: In vivo tissue inositol phosphate signaling pathway activation, salivary gland; set-up: species or system Long Evans Hooded rats; conditions: rat; for block of increase in salivary gland inositol phosphate caused by Compound 3: Compound 3 1 mg/kg, tertiary amine antagonist 0.1 mg/kg (FIGS. 8C, 8D); for inhibition of salivary gland inositol phosphate response to MCD-386: MCD-386 50 mg/kg, antagonist 0.3 mg/kg (FIG. 7)
Procedure: Experimental compounds or drug substances were administered using standard techniques to Long Evans Hooded rats weighing 225 to 350 grams, and which had been pretreated with a subcutaneous injection of lithium chloride at a suitable dose between 3 and 10 mmoles per kg. At suitable times the animals were briefly anesthetized using 5% isoflurane and euthanized by decapitation. The brains and submaxillary salivary glands were rapidly dissected out, and the hippocampuses were dissected from the brains. The dissected tissues were homogenized in a suitable volume of ice-cold phosphate-buffered saline containing 10 mM lithium chloride, pH7.4, using a tissue homogenizer, and used immediately or frozen in aliquots at −80 deg C. for future use. The concentration of inositol-1-phosphate was determined in the homogenates using the IPOne TR-FRET assay (CisBio cat no 621PAPEB), following the manufacturer's instruction

[2] = Blood and brain concentrations (rats), tail vein injection; format: in vivo, Long-Evans Hooded rats; conditions: rat; for Kp at 1 h: brain and plasma, intravenous, Table 114, read-out: Brain/Plasma Ratio; for concentration at 1 h: 3 mg/kg tail vein injection
Procedure: Long-Evans Hooded rats (Charles River: male, 230-300 g) were dosed with solutions of test compounds in PBS by tail vein injection. The dose for all compounds was 3 mg/kg. At one hour, the animals were anesthetized with isoflurane, and then euthanized by decapitation. Trunk blood was collected into a 1.5 mL microcentrifuge tube containing 15 U Heparin, and the plasma recovered after centrifugation. Brains were dissected, weighed, immediately chilled to 4° C., and homogenized using a PowerGen 125 homogenizer in five volumes of ice-cold 2% formic acid. Proteins were precipitated from plasma and brain homogenate with nine and five volumes respectively of ice-cold 2% formic acid and clarified by centrifugation. The supernatant was ultra-filtered by centrifugation through a 3K MWCO spin column (Pall Life Sciences), following the manufacturer's instructions. The concentration of compound in the ultra-filtrate was subjected to reverse-phase liquid chromatography using a 150×2.1 mm Agent C8 reverse-phase column on a Shimadzu Prominence LC, eluting the compounds with a gradient of 2% to 50% of acetonitrile+0.1% formic acid for all compounds. The concentration of the compound in the column effluent was measured using an Applied Biosystems API-3200 triple quadrupole mass spectrometer equipped with an electrospray sample injection system. The counts of the characteristic parent and product ions of each test compound were converted to concentration units by comparison with a standard curve.

[3] = tested on: pooled male human liver microsomes; test: Metabolism in human liver microsomes, Example 45; format: in vitro ADME
Procedure: Aliquots were removed every 2 hours, and 1% formic acid was added to halt the reaction. Samples were centrifuged, filtered through 0.2 micron spinfilter, and the amount of each compound in the supernatants was quantitated using LC/MS/MS as follows. The ultra-filtrates were subjected to reverse-phase liquid chromatography using a 150×2.1 mm Agilent C8-reverse phase column on a Shimadzu Prominence LC, eluting the compound with a gradient of 2%-50% acetonitrile+0.1% formic acid over 5 minutes. The concentration of the compound in the column effluent was measured using an Applied Biosystems API-3200 triple quadrupole mass spectrometer equipped with a Turbo V source (electrospray sample injection) system. The counts of the characteristic parent ions of the protonated compound and product ions were converted to concentration by comparison with a standard calibration curve. The parent/daughter ion pairs that were monitored for each compound were: 166.0/82.0 (105), 166.0/82.0 (106b), 166.0/82.0 (106a), 169.0/83.0 (136), 168.2/83.0 (121), 168.1/83.0 (122a), 168.1/83.0 (122b), 170.2/83.0 (134), 168.2/84.1 (135), 168.1/84.1 (137) and 169.2/82.1 (138).

[4] = target: T1, human muscarinic M1 receptors (Homo sapiens, UniProt P11229); format: cell-based; conditions: for huM1/A9L Smax: percentage of maximal stimulation by carbachol; for huM1/A9L Potency relative to carbachol: relative to the potency of carbachol at its EC50
T1 construct: host or cells: A9L cells
T1 sequence (P11229 1-460): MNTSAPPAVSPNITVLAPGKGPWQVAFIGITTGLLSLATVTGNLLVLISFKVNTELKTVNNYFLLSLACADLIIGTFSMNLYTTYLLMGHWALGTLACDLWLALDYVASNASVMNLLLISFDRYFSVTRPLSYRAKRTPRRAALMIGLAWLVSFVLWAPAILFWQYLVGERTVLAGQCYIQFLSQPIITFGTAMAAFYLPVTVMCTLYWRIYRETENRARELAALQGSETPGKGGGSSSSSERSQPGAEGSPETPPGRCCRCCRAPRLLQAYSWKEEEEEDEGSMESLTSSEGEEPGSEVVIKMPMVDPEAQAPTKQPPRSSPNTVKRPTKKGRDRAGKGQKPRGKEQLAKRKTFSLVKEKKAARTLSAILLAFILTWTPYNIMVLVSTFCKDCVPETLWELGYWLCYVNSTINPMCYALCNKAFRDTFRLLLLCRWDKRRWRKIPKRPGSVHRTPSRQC

[5] = target: T2, human muscarinic M3 receptors (Homo sapiens, UniProt P20309); format: cell-based; conditions: for huM3/A9L Smax: percentage of maximal stimulation by carbachol; for huM3/A9L Potency relative to carbachol: relative to the potency of carbachol at its EC50
T2 construct: host or cells: A9L cells
T2 sequence (P20309 whole entry): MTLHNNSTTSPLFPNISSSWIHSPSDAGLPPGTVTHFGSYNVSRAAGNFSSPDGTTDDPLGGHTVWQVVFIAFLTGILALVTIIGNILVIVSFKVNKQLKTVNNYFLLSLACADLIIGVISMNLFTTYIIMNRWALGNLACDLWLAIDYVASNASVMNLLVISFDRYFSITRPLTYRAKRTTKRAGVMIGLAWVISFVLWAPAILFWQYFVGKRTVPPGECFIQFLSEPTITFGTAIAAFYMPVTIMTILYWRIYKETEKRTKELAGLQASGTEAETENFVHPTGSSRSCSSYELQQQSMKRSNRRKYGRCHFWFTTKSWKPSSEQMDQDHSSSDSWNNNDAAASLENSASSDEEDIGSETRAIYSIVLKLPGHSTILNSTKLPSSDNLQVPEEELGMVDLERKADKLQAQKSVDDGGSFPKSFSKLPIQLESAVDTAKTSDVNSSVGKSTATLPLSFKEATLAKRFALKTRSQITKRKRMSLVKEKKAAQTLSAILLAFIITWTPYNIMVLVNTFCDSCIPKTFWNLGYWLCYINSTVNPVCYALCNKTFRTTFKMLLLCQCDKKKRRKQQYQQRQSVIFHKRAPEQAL

[6] = tested on: muscarinic M1 receptors in the hippocampus; test: In vivo inositol phosphate increase in hippocampus, Example 44; set-up: species or system Long Evans Hooded rats; conditions: rat, 3 mg/kg sc
Procedure: (§1) In lithium chloride-treated laboratory rodents, engagement of muscarinic M1 receptors in the hippocampus may usefully be evaluated in vivo by measuring the increase in the tissue of inositol phosphate (Bymaster F P et al Brain Res 795 (1998) 179-190). This may also be extended to measure engagement of muscaric M3 receptors in the salivary glands.
(§2) Experimental compounds were administered subcutaneously at 3 mg/kg using standard techniques to Long Evans Hooded rats weighing 225 to 350 g, and which had been pretreated with a subcutaneous injection of lithium chloride at a suitable dose between 3 and 5 mmole/kg. At suitable times the animals were briefly anesthetized using 5% isoflurane and euthanized by decapitation. The brains and submaxillary salivary glands were rapidly dissected out, and the hippocampuses were dissected from the brains. The dissected tissues were homogenized in a suitable volume of ice-cold phosphate-buffered saline containing 10 mM lithium chloride (pH=7.4) using a tissue homogenizer, and used immediately or frozen in aliquots at −80° C. for future use. The concentration of inositol-1-phosphate was determined in the homogenates using the […] IP-One Terbium TR-FRET assay kit (Cisbio Bioassays, cat. #62IPAPEJ) according to the manufacturer's instructions.

[7] = tested on: muscarinic M3 receptors in the salivary glands; test: In vivo inositol phosphate increase in salivary glands, Example 44; set-up: species or system Long Evans Hooded rats; conditions: rat, 3 mg/kg sc
Procedure: as §1, §2

in vitro = in vitro ADME; conditions: PAMPA, pH 7.4, 400 μM, pH 7.4, 24 hours, room temperature; read-out: PAMPA Permeability Coefficient (×10^6)
Procedure: PAMPA is a useful in vitro model for predicting the passive diffusion of drugs across the blood-brain barrier (Li, D et al Eur jour of Med Chem 38 (2003) 223-232).
Compounds were diluted in a 100 mM phosphate buffer (pH 7.4) to a concentration of 400 μM and the stock solutions were placed into a 96-well filter plate (Millipore, #MAIPN4510) pre-wetted with 20 mg/mL porcine brain polar lipid extract in 100% dodecane (Avanti, #131022) and placed into a 96-well acceptor plate (Millipore, #MSSACCEPTOR) whose wells were filled with the same phosphate buffer as in the filter plate. This assembly was incubated at room temperature for 24 hours. The experiment was halted by separating the filter plate from the acceptor plate. Aliquots were removed from the filter plate wells, acceptor plate wells, and stock solutions, and 1% trifluoroacetic acid was added to each. All solutions were measured by LC/UV, and passive diffusion rates were calculated using the peak area values (Avdeef, Alex. 2003. Page 147 in Absorption and Drug Development. Hoboken, N.J.: John Wiley & Sons).

[8] = Blood and brain concentrations (rats), tail vein injection; format: in vivo, Long-Evans Hooded rats; conditions: male, Long-Evans Hooded, rat, plasma, iv, 3 mg/kg, 3 mg/kg tail vein injection, read-out: Plasma Terminal Half-life (converted)
CD-I mice = test: Apomorphine induced climbing model of psychosis; format: in vivo; conditions: APO 2 mg/kg alone
Procedure: As described in Costall et. al. European Journal of Pharmacology 1978, 50, 39. individual CD-I mice, 1-2 months old, were placed in a cylindrical wire mesh cage (13.2 cm high×13.2 cm diameter) constructed of steel wire 1 mm thick spaced at 1.2 cm^2. Cylinders were placed in a standard OptiMICE mouse cage (29×32×9×29 cm and 14 cm high) with adequate wood chip bedding provided. Observations of climbing (defined as 3 or more paws of the ground) were carried out every 5 minutes at a duration of 1 minute for […]. Animals were injected subcutaneously under isoflurane anesthesia with test compounds, reference compounds, which included clozapine, haloperidol, olanzapine and xanomeline, or PBS as a control. This was followed 5 minutes later by 2 mg/kg apomorphine hydrochloride. All drugs were dissolved in PBS or a mixture of (by volume) 96% PBS and 4% hydroxypropyl-beta-cyclodextrin, and dosed at a rate of 5 ml per kilogram of body weight. Following injections, animals were replaced in the mesh cages and observed for climbing (defined as 3 or more paws off the ground) every 5 minutes for 1 minute for 60 minutes after dosing.

[9] = male, Long-Evans Hooded, 3 mg/kg
[10] = male, Long-Evans Hooded, in vivo, 3 mg/kg, read-out: Plasma Concentration at 1 hr

SMILES: NC(=O)C(c1ccccc1)(c1ccccc1)[C@@H]1CCN(CCc2ccc3c(c2)CCO3)C1 [darifenacin]
- reduction of salivation caused by transdermal iontophoretic delivery of Compound 3 (anesthetized rats): reduced salivation, but were less effective
- block of increase in salivary gland inositol phosphate caused by Compound 3 [1]: less effective
- inhibition of salivary gland inositol phosphate response to MCD-386 [1]: less effective

SMILES: CCN(CC)CC#CCOC(=O)C(O)(c1ccccc1)C1CCCCC1 (stereo not shown) [oxybutinin]
- reduction of salivation caused by transdermal iontophoretic delivery of Compound 3 (anesthetized rats): reduced salivation, but were less effective
- block of increase in salivary gland inositol phosphate caused by Compound 3 [1]: less effective
- inhibition of salivary gland inositol phosphate response to MCD-386 [1]: less effective

SMILES: [2H]C1([2H])NC[C@]2(c3nc(C)no3)C[C@H]12 [Compound 122b, 5-((1S,5S)-4,4-d2-3-azabicyclo[3.1.0]hexan-1-yl)-3-methyl-1,2,4-oxadiazole]
- Kp at 1 h [2, 9]: 0.58
- concentration at 1 h ([2]; male, Long-Evans Hooded, in vivo, 3 mg/kg, read-out: Brain Concentration at 1 hr): 5.1 µM
- concentration at 1 h [2, 10]: 8.8 µM
- Loss at 6 hrs (%) [3]: 13%
- huM1/A9L Smax [4]: 47%
- huM1/A9L Potency relative to carbachol [4]: 0.54
- huM3/A9L Smax [5]: 28%
- huM3/A9L Potency relative to carbachol [5]: 0.50
- Increase in Inositol Phosphate in Hippocampus/Control ([6]; 3 mmole/kg LiCl): 150%
- Increase in Inositol Phosphate in Salivary Gland/Control ([7]; 3 mmole/kg LiCl): 163%
- Papp at 24 h, 400 µM (in vitro): 37 nm/s
- half-life [8]: 1.3 h

SMILES: [2H]C([2H])([2H])c1noc(C23CNC([2H])([2H])C2C3)n1 (stereo not shown) [Compound 136, 5-(4,4,5-d3-3-azabicyclo[3.1.0]hexan-1-yl)-3-methyl-1,2,4-oxadiazole]
- Kp at 1 h [2, 9]: 0.56
- concentration at 1 h [2, 10]: 13.6 µM
- concentration at 1 h ([2]; read-out: Brain Concentration at 1 hr): 7.4 µM
- Loss at 6 hrs (%) [3]: 11%
- huM1/A9L Smax [4]: 41%
- huM1/A9L Potency relative to carbachol [4]: 0.89
- huM3/A9L Smax [5]: 36%
- huM3/A9L Potency relative to carbachol [5]: 0.45
- Increase in Inositol Phosphate in Hippocampus/Control ([6]; 5 mmole/kg LiCl, 3 mg/kg): 694%
- Increase in Inositol Phosphate in Salivary Gland/Control ([7]; 5 mmole/kg LiCl, 3 mg/kg): 231%
- Papp at 24 h, 400 µM (in vitro): 37.1 nm/s
- half-life [8]: 1.15 h

SMILES: CN1CCc2cccc3c2[C@H]1Cc1ccc(O)c(O)c1-3 [APO, reference compound]
- Climbing Mean (CD-I mice): 51.7 s

From US9403806B1, “Cognition enhancing compounds and compositions, methods of making, and methods of treating” (NeuroSolis, Inc., priority 2010, dated 2016)
